Consider four compounds from patent US20200121604A1, “SOLID FOSMETPANTOTENATE FORMULATIONS” (Retrophin, Inc., priority 2017, published 2020).

Data set [1] can be described thus: Accelerated stability of 10% drug loaded formulations, 25° C./60% RH, total related substances by HPLC. It counts as physicochemical. Conditions: 10% drug loading. Here is the method:
Fosmetpantotenate was thinned with ethyl acetate (EtOAc) at a 1:1 weight/weight ratio, and then blended with each solid excipient using a mortar and pestle on the 0.1 g scale of fosmetpantotenate, i.e., 0.2 g 50% (fosmetpantotenate/EtOAc)+0.9 g solid. The resulting materials were dried overnight at room temperature in a HEPA hood to remove excess EtOAc.
The formulations were stored under accelerated stability conditions (25° C./60% relative humidity (RH)) for 4 weeks. Some samples were stored in “open” conditions, i.e., exposed to air; other samples were stored in closed containers. The amount of impurities was measured at beginning of storage (t=0), after 2 weeks of storage (t=2 weeks), and after 4 weeks of storage (t=4 weeks). The amount of impurities (total related substances, expressed as a percentage) was determined using the methods described in Example 26 below.
The amount of total impurities was determined via integration of HPLC peak areas within 3 days after the formulations were prepared and before beginning storage (time=0 weeks). The amount of total impurities was measured again after 2 weeks, 4 weeks, 6 weeks, 8 weeks, and 12 weeks of storage. Capsule samples for analysis were prepared by dissolving 5 capsules in a volumetric flask with H2O/ACN 50/50 (v/v) containing 0.1% (v/v) HCOOH. “Drug only” and granulation samples were prepared by adding the sample directly into a volumetric flask and diluting with H2O/ACN 50/50.

Data set [2] can be described thus: Chemical stability of formulations, 30° C. and 65% relative humidity, closed containers, 12 weeks, total impurities by HPLC. Type of data set: physicochemical. Here is the method:
A stability study was performed to assess the stability of fosmetpantotenate in the following formulations: 1 g fosmetpantotenate (“drug only”; containing approximately 10% acetic acid); 75 mg fosmetpantotenate EA capsules (10% ethyl acetate); 75 mg fosmetpantotenate LG-90 capsules (38% laurylglycol 90); fosmetpantotenate MCC granulation, as described in Example 2; and fosmetpantotenate mannitol granulation, as described in Example 3; and 25:75 fosmetpantotenate:HPMCAS-L Spray Dried Dispersion (SDD) granulation, as described in Example 24. Additionally, fosmetpantotenate without solid excipient or solvent (“drug only”) was stored closed in borosilicate glass vials. Formulations contained in soft gel capsules were stored in closed HDPE bottles, and solid fosmetpantotentate granulation formulations were stored in closed foil-foil packaging. Stability samples were stored at ca. −20° C. (control samples) and at 30° C. and 65% relative humidity in closed containers for 12 weeks.
The amount of total impurities was determined via integration of HPLC peak areas within 3 days after the formulations were prepared and before beginning storage (time=0 weeks). The amount of total impurities was measured again after 2 weeks, 4 weeks, 6 weeks, 8 weeks, and 12 weeks of storage. […]

A short description of data set [3]: Chemical stability of fosmetpantotenate with and without acetic acid, alone and with MCC, 30° C./65% RH, reverse-phase HPLC. It counts as physicochemical. Conditions: weight percent; for Phenol (%): main degradant. The method, then:
Fosmetpantotenate was prepared and purified as in Examples 1 (“with acetic acid”) and Example 28 (“without acid”). Flowability and stability were analyzed for the acetic acid-containing fosmetpantotenate and the “without acid” fosmetpantotenate, alone and when formulated with MCC.
For the MCC formulations, fosmetpantotenate was diluted 1:1 (w:w) with ethyl acetate (HPLC grade, EMD) to generate a solution of viscosity suitable for wet granulation. Porous MCC (Avicel® PH200) was sieved via 120 mesh (125 μm opening) to remove fine particles and then placed in a Freund-Vector GMX-LAB Micro high shear granulator (1 L stainless steel bowl). The impeller speed was kept at 125 rpm during the process. 40 g of 50 wt % fosmetpantotenate ethyl acetate solution (contains 20 g fosmetpantotenate) was added into 80 g substrate at approximately 8 g/min drop-wise via a glass transfer pipette to achieve a 20:80 fosmetpantotenate:MCC ratio (i.e., 20% drug loading by weight). The resulting materials were agitated for an additional 10 minutes followed by tray drying overnight at room temperature to facilitate removal of ethyl acetate.
For the stability analysis, samples of fosmetpantotenate were subdivided and transferred into separate 20 mL clear scintillation vials (about 1 g sample per vial). Closed vials were then placed individually into 5″×7″ foil pouches (CADPAK N-HD, WVTR 0.0005 g/100 in^2/day at 90% RH 40° C.). followed by heat sealing the pouches without desiccant inside. Fosmetpantotenate powder samples were weighed (3 g) and placed directly into the same foil pouches described above, and heat sealed without desiccant inside. Closed samples were stored at 30° C./65% RH and measured after 0, 2, 4, and 8 weeks.
Measurement of impurities was performed by reverse-phase HPLC, utilizing the methods in Table 10. Water:acetonitrile 95:5 (v:v) with 0.005% phosphoric acid was used to extract the API (fosmetpantotenate) from the granulation at concentration of 0.75 mg/mL on an active basis. The sample suspension was ultrasonicated for 10 minutes to ensure complete API extraction followed by filtration using 0.45 μm PTFE filters to remove insoluble materials (i.e., MCC in the granulation samples). The filtrates were then transferred to individual vials and analyzed by HPLC.

The subject of data set [4] is wild-type and PanK2-deficient IRM32 cells. The experiment in a line: Half-life of Coenzyme A in cells treated with labeled fosmetpantotenate or pantothenic acid. It counts as cell-based. The method, then:
The half-life of Coenzyme A (CoA) was determined for both wild-type and PanK2-deficient IRM32 cells.
Stable isotopically labeled pantothenic acid (vitamin B5) and fosmetpantotenate, a compound currently in a Phase 3 clinical trial for the treatment of […], were prepared. The PanK2-deficient cell line was treated with labeled fosmetpantotenate (100 μM) while the parental IRM32 (WT) line was treated with labeled pantothenic acid. After 24 h the media was changed to complete media and the cells were harvested at various time points. The fraction of labeled CoA, both free and total, with respect to time 0 was calculated to determine the half-life of CoA under each of these conditions.

For data set [5] the following is noted: reference substances; cited from earlier work.

Take `COC(=O)CCNC(=O)[C@H](O)C(C)(C)COP(=O)(N[C@@H](C)C(=O)OC)Oc1ccccc1` (stereo partly drawn) [fosmetpantotenate, methyl 3-((2R)-2-hydroxy-4-(((((S)-1-methoxy-1-oxopropan-2-yl)amino)(phenoxy)phosphoryl)oxy)-3,3-dimethylbutanamido)propanoate]: the “Total % Related Substances” value came out at 5.76% in data set [1] (25° C./60% RH, t = 2 weeks, Closed); 5.94% in data set [1] (25° C./60% RH, t = 2 weeks, Open); 6.39% in data set [1] (25° C./60% RH, t = 4 weeks, Closed); 6.29% in data set [1] (25° C./60% RH, t = 4 weeks, Open); 4.80% in data set [1] (t = 0). In data set [2], the “average amount of degradation per week” value came to 2.6%.

`COC(=O)CCNC(=O)[C@H](O)C(C)(C)COP(=O)(N[C@@H](C)C(=O)OC)Oc1ccccc1` (some centres unmarked) [Fosmetpantotenate, no acid]: the “Phenol (%)” value amounted to 0.20% in data set [3] (30° C./65% RH closed, t = 2 wk); 0.42% in data set [3] (30° C./65% RH closed, t = 4 wk); 1.62% in data set [3] (30° C./65% RH closed, t = 8 wk); 0.12% in data set [3] (t = 0). Moreover, the “Impurities, excluding phenol (%)” value was 3.69% in data set [3] (30° C./65% RH closed, t = 2 wk); 7.01% in data set [3] (30° C./65% RH closed, t = 4 wk); 12.82% in data set [3] (30° C./65% RH closed, t = 8 wk); 2.28% in data set [3] (t = 0). The “Total impurities (%)” value in data set [3] (30° C./65% RH closed, t = 2 wk) amounted to 4.44%; in data set [3] (30° C./65% RH closed, t = 4 wk), 8.54%; in data set [3] (30° C./65% RH closed, t = 8 wk), 17.73%; in data set [3] (t = 0) it was 2.75%.

As to `CC(C)(COP(=O)(O)OP(=O)(O)OC[C@H]1O[C@@H](n2cnc3c(N)ncnc32)[C@H](O)[C@@H]1OP(=O)(O)O)[C@@H](O)C(=O)NCCC(=O)NCCS` [CoA, Coenzyme A], in data set [4], the “half-life of CoA, PanK2-deficient versus WT cells” value is recorded as “somewhat shorter in PanK2-deficient cells than in WT cells”.

Regarding `O` [Water], the “Viscosity (Cp)” value in data set [5] was 1 Cp.
